Here are results for 5 compounds from patent US4189499A, “Lysine 4-allyloxy-3-chlorophenylacetate and method of its preparation” (priority 1979, dated 1980).

Values joined by “and” are separate entries in the source; they are usually repeats but may differ in a detail not shown here. Equal entries are not always repeated. “Also recorded” adds a separate entry of the source. Structures can show the parent of a compound that is named as a salt. Where two headings read alike, the source gives them in different places.

The conditions of series [1]: intravenous route, prior knowledge; cited from earlier work.
Series [2] concerns rabbit dorsal long muscle. The experiment in a line: Local tolerability after intramuscular injection, muscle removed at 24 hours, irritation by arbitrary scores. The series is classed as in vivo. Also noted: scale not given here. The protocol:
Such a tolerability was estimated after injection of equivalent solutions of the various preparations, effected in the rabbit dorsal long muscle, removing muscle 24 hours after injection and estimating the degree of induced irritation through arbitrary scores.

The nature of another series: pH of aqueous solution. The series is classed as physicochemical. The conditions noted are these: aqueous solution as prepared.
Series [3] in a line: General tolerability by route of administration. The series is classed as in vivo. Conditions: intravenous or intramuscular; listed as Mono-ethanolamine solution.
The nature of series [4]: Stability and hygroscopicity. The series is classed as physicochemical. Conditions: for Stability of the solution: in words; for Hygroscopicity: isolated solid.
Series [5] is described as follows: Pharmacokinetics from plasma levels after oral, rectal and intramuscular administration in rabbits. The series is classed as in vivo, rabbit. Conditions: for Ka / t1/2α / CL/F / k el / Cmax / Vd/F / half-life / Tmax: ± E.S.M.; for CL/F / k el / Cmax / Vd/F / half-life / Tmax: rabbit, plasma; for Cmax: read-out: Cmax; for Vd/F: read-out: Vdβ; for half-life: read-out: t1/2β; for Tmax: read-out: tmax (converted). As to the method: (§1) The following pharmacological experimentation was carried out in order to estimate the comparative absorption and bioavailability through various administration routes in rabbits of Alclofenac acid and its lysine salt.

For series [6] the following is noted: cited from earlier work.
The next series is described as follows: Solubility. The series is classed as physicochemical. Conditions: in words, solvent as stated.
Series [7] is described as follows: Extent of availability after different routes, intravenous administration as reference. The series is classed as in vivo, rabbit. The conditions noted are these: i.v. as reference. As to the method:
as §1

[8] abbreviates: 100 mg/ml (as acid), 0.25 ml injected.
The mark [9] stands for this setting: listed as Mono-ethanolamine solution.
Setting [10] is: 100 mg/ml (as acid), 0.5 ml injected.
The mark [11] stands for this setting: 131 mg/ml (as acid), 0.25 ml injected.

As for `C=CCOc1ccc(CC(=O)O)cc1Cl` [sodic salt of the acid], in series [1], the tolerability of injection result is reported as “scarcely tolerated”.

As for `C=CCOc1ccc(CC(=O)O)cc1Cl` [Alclofenac-Ethanolamine], in series [2] (setting [8]), the “SCORES at 24 hours, Average” value amounted to 3; the “SCORES at 24 hours, individual” value is 3 and 3.5 and 2.5. In the series “pH of aqueous solution” (setting [9]), this compound showed a pH of solution of 7.5. The tolerability on injection entry in series [3] is “poor tolerability”. In series [4] (setting [9]), the “Stability of the solution” value was “stable”.

In [5] (P.OS 90 mg/kg), `C=CCOc1ccc(CC(=O)O)cc1Cl` [Alclofenac, 4-allyloxy-3-chlorophenylacetic acid, reference compound] displayed a Ka of 0.0146 ± 0.0018 min⁻¹ and a t1/2α of 0.85 ± 0.083333 h. In series [5] (RECTAL 100 mg/kg), this compound yielded a Ka of 0.053 ± 0.10 min⁻¹ and a t1/2α of 0.233 ± 0.05 h. Besides, the “absorption, in words” value in series [5] (oral and rectal route, rabbits) was “well absorbed through the oral and rectal route”. In addition, in series [5] (100 mg/kg, RECTAL 100 mg/kg), the CL/F was found to be 0.54 ± 0.04 mL/min/kg, the k el was 3.83e-05 s⁻¹, the Cmax came to 425 ± 11.9 µg/mL and the Vd/F came out at 0.274 ± 0.06 L/kg. Also, in series [5] (100 mg/kg, RECTAL 100 mg/kg), the half-life came to 5.12 ± 0.583 h and the Tmax is 1.1 h. In [5] (po, 90 mg/kg, P.OS 90 mg/kg), the CL/F turned out to be 0.64 ± 0.06 mL/min/kg, the k el is 3e-05 s⁻¹, the maximum concentration (Cmax) amounted to 358 ± 47.8 µg/mL and the Vd/F was found to be 0.326 ± 0.045 L/kg. Further, in series [5] (po, 90 mg/kg, P.OS 90 mg/kg), the half-life was determined as 6.9 ± 0.667 h and the Tmax was 2.88 h. In addition, the antiinflammatory properties entry in [6] (in vivo) was “antiinflammatory properties”. Also, the analgesic activity entry in series [6] (versus acetylsalicylic acid) is given as “marked analgesic activity, higher than acetylsalicylic acid”. For the same compound, in “Solubility”, the Solubility entry is on record as “insoluble in the physiological fluids; also recorded: insolubility”. In addition, the “% Availability (AUC o → 4h)” value in series [7] (P.O. 90 mg/kg, 0-4 h, 90 mg/kg, 240 min) is 42.4%. In addition, in series [7] (P.O. 90 mg/kg, 90 mg/kg), the “% Availability (practical AUC)” value is reported as 84.0% and the “% Availability (theoretical AUC)” value was 89.2%. Also, in series [7] (Rectal 100 mg/kg, 0-2 h, 100 mg/kg, 120 min), the “% Availability (AUC o → 2h)” value was 83.24%. Also, in series [7] (Rectal 100 mg/kg, 100 mg/kg), the “% Availability (practical AUC)” value came out at 105.7% and the “% Availability (theoretical AUC)” value was found to be 87.2%.

Regarding `C=CCOc1ccc(CC(=O)O)cc1Cl` [Alclofenac-Methylglucose], in series [2] (setting [8]), the “SCORES at 24 hours, Average” value was determined as 2; the “SCORES at 24 hours, individual” value was 0 and 3 (2×). Also, in [2] (setting [10]), the “SCORES at 24 hours, Average” value is reported as 5.4; the “SCORES at 24 hours, individual” value is 2 and 5 and 10 and 4.5. Besides, in [4] (listed as Methylglucamine salt), the “Stability of the solution” value was “not very stable” and the Hygroscopicity entry was “very hygroscopic”.

Regarding `C=CCOc1ccc(CC(=O)O)cc1Cl` [Alclofenac-Arginine], the “SCORES at 24 hours, Average” value in [2] (setting [10]) stood at 3.9; in [2] (setting [11]), 1.6. Also, the “SCORES at 24 hours, individual” value in [2] (setting [10]) was 6.5 and 2.5 and 3 and 3.5; in series [2] (setting [11]), 1.5 and 3.5 and 3 and 0. In addition, in the series “Solubility” (listed as Arginine salt), the Solubility result is “scarcely water soluble”. In addition, the pH of solution in “pH of aqueous solution” (listed as Arginine salt) worked out at 7.7. Besides, the Hygroscopicity result in series [4] (listed as Arginine salt) was “non-hygroscopic”.

A word on the CL/F: it is the apparent clearance, not corrected for the fraction that reaches the circulation. As a reminder, the Cmax is the peak of the concentration-time curve. In general, Tmax refers to the time at which the peak concentration occurs.
